Laboratory results reported in patent publication US6525001B1, “Substituted pyrimidine and pyridine herbicides” (Mid-American Commercialization Corporation, priority 1997, dated 2003).

How the values were obtained:
Type in all cases: in vivo
Design in all cases: key: 0 is no effect; 10 is complete control
[1] = system: bamyardgrass (Echinochloa crus-galli); assay: Test B flood test
Procedure, shortened: (§1)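 Read-out is a visual response score from 0 (no effect) to 10 (complete control), assigned by comparison with untreated controls. Treatment was applied at the 2-leaf stage, and plants stayed in the greenhouse for twelve to sixteen days before scoring.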

[2] = system: smallflower flatsedge (Cyperus difformis); assay: Test B flood test
Procedure, shortened: as §1

[3] = system: duck salad (Heteranthera limosa); assay: Test B flood test
Procedure, shortened: as §1

rice (Oryza sativa) = assay: Test B flood test
Procedure, shortened: as §1

corn (Zea mays) = assay: Test B pre-/postemergence
Description: (§2) Seeds of bedstraw (Galium aparine), blackgrass (Alopecurus myosuroides), broadleaf signalgrass (Brachiaria decumbens), cocklebur (Xanthium strumarium), corn (Zea mays), crabgrass (Digitaria sanguinalis), giant foxtail (Setaria faberii), lambsquarters (Chenopodium album), momingglory (Ipomoea hederacea), pigweed (Amaranthus retroflexus), rape (Brassica napus), soybean (Glycine max), sugar beet (Beta vulgaris), velvetleaf (Abutilon theophrasti), wheat (Triticum aestivum), wild oat (Avena fatua) and purple nutsedge (Cyperus rotundus) tubers were planted and treated preemergence with test chemicals formulated in a non-phytotoxic solvent mixture which included a surfactant.
(§3) At the same time, these crop and weed species were also treated with postemergence applications of test chemicals formulated in the same manner. Plants ranged in height from 2 to 18 cm (1- to 4-leaf stage) for postemergence treatments. Plant species in the flood test consisted of rice (Oryza sativa), smallflower flatsedge (Cyperus difformis), duck salad (Heteranthera limosa) and bamyardgrass (Echinochloa crus-galli) grown to the 2-leaf stage for testing. Treated plants and controls were maintained in a greenhouse for twelve to sixteen days, after which all species were compared to controls and visually evaluated. Plant response ratings, summarized in Table B, are based on a scale of 0 to 10 where 0 is no effect and 10 is complete control. A dash (−) response means no test result.

[4] = system: momingglory (Ipomoea hederacea); assay: Test B pre-/postemergence
Description: as §2, §3

[5] = system: broadleaf signalgrass (Brachiaria decumbens); assay: Test B pre-/postemergence
Description: as §2, §3

soybean (Glycine max) = assay: Test B pre-/postemergence
Description: as §2, §3

[6] = system: blackgrass (Alopecurus myosuroides); assay: Test B pre-/postemergence
Description: as §2, §3

[7] = system: giant foxtail (Setaria faberii); assay: Test B pre-/postemergence; conditions: for Plant response rating, Giant foxtail: Postemergence; for Giant foxtail plant response rating: Preemergence
Description: as §2, §3

[8] = system: pigweed (Amaranthus retroflexus); assay: Test B pre-/postemergence
Description: as §2, §3

[9] = system: bedstraw (Galium aparine); assay: Test B pre-/postemergence
Description: as §2, §3

[10] = system: velvetleaf (Abutilon theophrasti); assay: Test B pre-/postemergence
Description: as §2, §3

[11] = system: crabgrass (Digitaria sanguinalis); assay: Test B pre-/postemergence
Description: as §2, §3

[12] = system: purple nutsedge (Cyperus rotundus); assay: Test B pre-/postemergence
Description: as §2, §3

[13] = system: sugar beet (Beta vulgaris); assay: Test B pre-/postemergence
Description: as §2, §3

[14] = system: wheat (Triticum aestivum); assay: Test B pre-/postemergence
Description: as §2, §3

rape (Brassica napus) = assay: Test B pre-/postemergence
Description: as §2, §3

[15] = system: cocklebur (Xanthium strumarium); assay: Test B pre-/postemergence
Description: as §2, §3

wild oat (Avena fatua) = assay: Test B pre-/postemergence
Description: as §2, §3

[16] = Rate 62 g/ha, Postemergence (flood test)
[17] = Rate 125 g/ha, Postemergence, flood test
[18] = Rate 250 g/ha, Postemergence (flood test species)

In the case of `COC(=O)C(c1cccc(C(F)(F)F)c1)c1nc(-c2ccc(C(F)(F)F)cc2)ncc1C` (racemic) [Compound 18], the “Plant response rating, Barnyardgrass” value [1, 16] is reported as 2, the “Plant response rating, Barnyardgrass” value [1, 17] is reported as 1 and the “Plant response rating, Barnyardgrass” value [1, 18] is reported as 2. For the same molecule, the “Plant response rating, S. Flatsedge” value [2, 16] was 9, the “Plant response rating, S. Flatsedge” value [2, 17] was 1 and the “Plant response rating, S. Flatsedge” value [2, 18] was 2. The “Plant response rating, Ducksalad” value [3, 16] was 1, the “Plant response rating, Ducksalad” value [3, 17] was 2 and the “Plant response rating, Ducksalad” value [3, 18] was 2. For the same molecule, the “Plant response rating, Rice” value (rice (Oryza sativa); [16]) was 1, the “Plant response rating, Rice” value (rice (Oryza sativa); [17]) was 0 and the “Plant response rating, Rice” value (rice (Oryza sativa); [18]) was 0. The “Plant response rating, Corn” value (corn (Zea mays); Rate 62 g/ha, Postemergence) was 2, the “Corn plant response rating” value (corn (Zea mays); Rate 62 g/ha, Preemergence) was 0 and the “Plant response rating, Corn” value (corn (Zea mays); Rate 125 g/ha, Postemergence) was 2. The “Corn plant response rating” value (corn (Zea mays); Rate 125 g/ha, Preemergence) was 0, the “Plant response rating, Corn” value (corn (Zea mays); Rate 250 g/ha, Postemergence) was 2 and the “Plant response rating, Corn” value (corn (Zea mays); Rate 250 g/ha, Preemergence) was 0. The “Plant response rating, Morningglory” value ([4]; Rate 62 g/ha, Postemergence) was 3, the “Morningglory plant response rating” value ([4]; Rate 62 g/ha, Preemergence) was 1 and the “Plant response rating, Morningglory” value ([4]; Rate 125 g/ha, Postemergence) was 8. For the same molecule, the “Morningglory plant response rating” value ([4]; Rate 125 g/ha, Preemergence) was 4, the “Plant response rating, Morningglory” value ([4]; Rate 250 g/ha, Postemergence) was 8 and the “Plant response rating, Morningglory” value ([4]; Rate 250 g/ha, Preemergence) was 6. For the same molecule, the “Plant response rating, B. signalgrass” value ([5]; Rate 62 g/ha, Postemergence) was 2, the “B. signalgrass plant response rating” value ([5]; Rate 62 g/ha, Preemergence) was 0 and the “Plant response rating, B. signalgrass” value ([5]; Rate 125 g/ha, Postemergence) was 2. The “B. signalgrass plant response rating” value ([5]; Rate 125 g/ha, Preemergence) was 1, the “Plant response rating, B. signalgrass” value ([5]; Rate 250 g/ha, Postemergence) was 3 and the “Plant response rating, B. signalgrass” value ([5]; Rate 250 g/ha, Preemergence) was 2. For the same molecule, the “Plant response rating, Soybean” value (soybean (Glycine max); Rate 62 g/ha, Postemergence) was 3, the “Soybean plant response rating” value (soybean (Glycine max); Rate 62 g/ha, Preemergence) was 0 and the “Plant response rating, Soybean” value (soybean (Glycine max); Rate 125 g/ha, Postemergence) was 4. The “Soybean plant response rating” value (soybean (Glycine max); Rate 125 g/ha, Preemergence) was 0, the “Plant response rating, Soybean” value (soybean (Glycine max); Rate 250 g/ha, Postemergence) was 6 and the “Plant response rating, Soybean” value (soybean (Glycine max); Rate 250 g/ha, Preemergence) was 0. The “Plant response rating, Blackgrass” value ([6]; Rate 62 g/ha, Postemergence) was 2, the “Blackgrass plant response rating” value ([6]; Rate 62 g/ha, Preemergence) was 0 and the “Plant response rating, Blackgrass” value ([6]; Rate 125 g/ha, Postemergence) was 2. The “Blackgrass plant response rating” value ([6]; Rate 125 g/ha, Preemergence) was 0, the “Plant response rating, Blackgrass” value ([6]; Rate 250 g/ha, Postemergence) was 2 and the “Plant response rating, Blackgrass” value ([6]; Rate 250 g/ha, Preemergence) was 1. The “Plant response rating, Giant foxtail” value ([7]; Rate 62 g/ha) was 1, the “Giant foxtail plant response rating” value ([7]; Rate 62 g/ha) was 0 and the “Plant response rating, Giant foxtail” value ([7]; Rate 125 g/ha) was 1. The “Giant foxtail plant response rating” value ([7]; Rate 125 g/ha) was 0, the “Plant response rating, Giant foxtail” value ([7]; Rate 250 g/ha) was 1 and the “Plant response rating, Redroot pigweed” value ([8]; Rate 62 g/ha, Postemergence) was 6. For the same molecule, the “Redroot pigweed plant response rating” value ([8]; Rate 62 g/ha, Preemergence) was 0, the “Plant response rating, Redroot pigweed” value ([8]; Rate 125 g/ha, Postemergence) was 6 and the “Redroot pigweed plant response rating” value ([8]; Rate 125 g/ha, Preemergence) was 3. The “Plant response rating, Redroot pigweed” value ([8]; Rate 250 g/ha, Postemergence) was 9, the “Plant response rating, Redroot pigweed” value ([8]; Rate 250 g/ha, Preemergence) was 7 and the “Plant response rating, Bedstraw” value ([9]; Rate 62 g/ha, Postemergence) was 7. For the same molecule, the “Bedstraw plant response rating” value ([9]; Rate 62 g/ha, Preemergence) was 0, the “Plant response rating, Bedstraw” value ([9]; Rate 125 g/ha, Postemergence) was 8 and the “Bedstraw plant response rating” value ([9]; Rate 125 g/ha, Preemergence) was 2. The “Plant response rating, Bedstraw” value ([9]; Rate 250 g/ha, Postemergence) was 9, the “Plant response rating, Bedstraw” value ([9]; Rate 250 g/ha, Preemergence) was 5 and the “Plant response rating, Velvetleaf” value ([10]; Rate 62 g/ha, Postemergence) was 5. For the same molecule, the “Velvetleaf plant response rating” value ([10]; Rate 62 g/ha, Preemergence) was 0, the “Plant response rating, Velvetleaf” value ([10]; Rate 125 g/ha, Postemergence) was 6 and the “Velvetleaf plant response rating” value ([10]; Rate 125 g/ha, Preemergence) was 0. For the same molecule, the “Plant response rating, Velvetleaf” value ([10]; Rate 250 g/ha, Postemergence) was 7, the “Plant response rating, Velvetleaf” value ([10]; Rate 250 g/ha, Preemergence) was 0 and the “Plant response rating, Crabgrass” value ([11]; Rate 62 g/ha, Postemergence) was 1. For the same molecule, the “Crabgrass plant response rating” value ([11]; Rate 62 g/ha, Preemergence) was 0, the “Plant response rating, Crabgrass” value ([11]; Rate 125 g/ha, Postemergence) was 2 and the “Crabgrass plant response rating” value ([11]; Rate 125 g/ha, Preemergence) was 0. For the same molecule, the “Plant response rating, Crabgrass” value ([11]; Rate 250 g/ha, Postemergence) was 3, the “Plant response rating, Crabgrass” value ([11]; Rate 250 g/ha, Preemergence) was 6 and the “Plant response rating, Nutsedge” value ([12]; Rate 62 g/ha, Postemergence) was 0. The “Nutsedge plant response rating” value ([12]; Rate 62 g/ha, Preemergence) was 0, the “Plant response rating, Nutsedge” value ([12]; Rate 125 g/ha, Postemergence) was 0 and the “Nutsedge plant response rating” value ([12]; Rate 125 g/ha, Preemergence) was 0. For the same molecule, the “Plant response rating, Nutsedge” value ([12]; Rate 250 g/ha, Postemergence) was 0, the “Plant response rating, Nutsedge” value ([12]; Rate 250 g/ha, Preemergence) was 0 and the “Plant response rating, Sugarbeets” value ([13]; Rate 62 g/ha, Postemergence) was 7. The “Sugarbeets plant response rating” value ([13]; Rate 62 g/ha, Preemergence) was 3, the “Plant response rating, Sugarbeets” value ([13]; Rate 125 g/ha, Postemergence) was 7 and the “Sugarbeets plant response rating” value ([13]; Rate 125 g/ha, Preemergence) was 6. The “Plant response rating, Sugarbeets” value ([13]; Rate 250 g/ha, Postemergence) was 9, the “Plant response rating, Sugarbeets” value ([13]; Rate 250 g/ha, Preemergence) was 6 and the “Plant response rating, Wheat” value ([14]; Rate 62 g/ha, Postemergence) was 1. For the same molecule, the “Wheat plant response rating” value ([14]; Rate 62 g/ha, Preemergence) was 0, the “Plant response rating, Wheat” value ([14]; Rate 125 g/ha, Postemergence) was 3 and the “Wheat plant response rating” value ([14]; Rate 125 g/ha, Preemergence) was 0. The “Plant response rating, Wheat” value ([14]; Rate 250 g/ha, Postemergence) was 3, the “Plant response rating, Wheat” value ([14]; Rate 250 g/ha, Preemergence) was 0 and the “Plant response rating, Rape” value (rape (Brassica napus); Rate 62 g/ha, Postemergence) was 4. The “Rape plant response rating” value (rape (Brassica napus); Rate 62 g/ha, Preemergence) was 0, the “Plant response rating, Rape” value (rape (Brassica napus); Rate 125 g/ha, Postemergence) was 7 and the “Rape plant response rating” value (rape (Brassica napus); Rate 125 g/ha, Preemergence) was 0. The “Plant response rating, Rape” value (rape (Brassica napus); Rate 250 g/ha, Postemergence) was 9, the “Plant response rating, Rape” value (rape (Brassica napus); Rate 250 g/ha, Preemergence) was 0 and the “Plant response rating, Cocklebur” value ([15]; Rate 62 g/ha, Postemergence) was 6. For the same molecule, the “Plant response rating, Cocklebur” value ([15]; Rate 125 g/ha, Postemergence) was 7, the “Plant response rating, Cocklebur” value ([15]; Rate 250 g/ha, Postemergence) was 8 and the “Plant response rating, Cocklebur” value ([15]; Rate 250 g/ha, Preemergence) was 0. The “Plant response rating, Wild oats” value (wild oat (Avena fatua); Rate 62 g/ha, Postemergence) was 3, the “Wild oats plant response rating” value (wild oat (Avena fatua); Rate 62 g/ha, Preemergence) was 2 and the “Plant response rating, Wild oats” value (wild oat (Avena fatua); Rate 125 g/ha, Postemergence) was 5. The “Wild oats plant response rating” value (wild oat (Avena fatua); Rate 125 g/ha, Preemergence) was 3, the “Plant response rating, Wild oats” value (wild oat (Avena fatua); Rate 250 g/ha, Postemergence) was 5 and the “Plant response rating, Wild oats” value (wild oat (Avena fatua); Rate 250 g/ha, Preemergence) was 5.
